The values below come from US20240409557A1, “5,6-FUSED AND 6,6-FUSED BICYCLIC ALCOHOLS AND ETHERS AND COMPOSITIONS FOR USE AS 15-PROSTAGLANDIN DEHYDROGENASE MODULATORS” (AMGEN INC., priority 2023, published 2024).

The test concerns the target T1, human recombinant 15-PGDH (Homo sapiens, UniProt P15428).
T1 sequence (P15428 1-266): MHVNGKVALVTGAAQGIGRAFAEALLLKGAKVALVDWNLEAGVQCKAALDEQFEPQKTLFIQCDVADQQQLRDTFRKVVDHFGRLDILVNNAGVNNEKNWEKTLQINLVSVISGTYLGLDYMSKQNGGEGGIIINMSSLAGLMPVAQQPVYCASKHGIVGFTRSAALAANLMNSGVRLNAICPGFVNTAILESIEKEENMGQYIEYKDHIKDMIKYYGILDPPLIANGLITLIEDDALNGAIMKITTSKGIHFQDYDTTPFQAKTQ
Put plainly: Recombinant 15-PGDH enzymatic inhibition assay (PGDH-Lumi, NADH signal). It is filed as biochemical. The settings on record: recombinant 15-PGDH; 15 min pre-incubation, 60 min reaction with PGE2 and NAD+, NADH signal. How it is done:
These assays measured 15-PGDH enzymatic activity by quantifying the amount of NADH produced during a 60-minute reaction initiated by the addition of PGE2 and NAD+. Under the conditions of these experiments, the increase of NADH signal upon oxidation of PGE2 and reduction of NAD+ was linearly proportional to 15-PGDH enzymatic activity. The recombinant human, mouse, rat and dog 15-PGDH enzymatic assays were performed in a 25 μL volume of reaction buffer containing 50 mM Tris, pH 7.5, 0.01% Tween-20 and […] DTT in a 384-well microtiter plate. In concentration-response experiments with tested compounds, 22 concentrations from 2-fold serial dilutions in DMSO were pre-incubated with 15-PGDH for 15 minutes at room temperature. Then, PGE2 and β-NAD+ were added to initiate the 15-PGDH reaction. After 60 minutes at room temperature, the reaction was quenched and NADH signal was measured using a microtiter plate reader.
The following data (Table 27-1) provides the IC50 in μM of each compound for inhibiting enzymatic activity of the recombinant 15-PGDH in the assay described above.

The IC50 is the concentration that gives 50% inhibition. In the case of `CC(C)n1ncc2cc(-c3ccc4cc([C@@H](O)C5CC(F)(F)C5)sc4n3)cnc21` (single isomer, unassigned) [Compound B65S], the IC50 amounted to 23.1 nM.

For `O[C@H](c1cc2ccc(-c3cnc4[nH]nnc4c3)nc2s1)C1CCOCC1` (single isomer, unassigned) [Compound B44S], the IC50 is 133 nM.

`CCC[C@H](O)c1cc2ccc(-c3cnc4nn(C)cc4c3)cc2s1` (single isomer, unassigned) [Compound B54S]: the IC50 was 757 nM.

Turning to `CC(O)c1cc2c(-c3cnc4nn(C)cc4c3)cc(-c3ccnn3C)nc2s1` (stereo not shown) [Compound B5, 1-(4-(2-methyl-2H-pyrazolo[3,4-b]pyridin-5-yl)-6-(1-methyl-1H-pyrazol-5-yl)thieno[2,3-b]pyridin-2-yl)ethanol], the IC50 was found to be 78.4 nM.

For `O[C@H](c1cc2ccc(-c3cncnc3)nc2s1)C1CC(F)(F)C1` (single isomer, unassigned) [Compound B57S], the IC50 stood at 13.2 nM.

For `Cn1nnc2cc(-c3ccc4cc([C@@H](O)C5CC(F)(F)C5)sc4n3)cnc21` [Compound B82S, (S)-(3,3-difluorocyclobutyl)(6-(3-methyl-3H-[1,2,3]triazolo[4,5-b]pyridin-6-yl)thieno[2,3-b]pyridin-2-yl)methanol], the IC50 was 1.65 nM.

For the compound `Cn1cc2cc(-c3cnc4sc([C@@H](O)C5CC(F)(F)C5)cc4n3)cnc2n1` [Compound B96S, (S)-(3,3-difluorocyclobutyl)(2-(2-methyl-2H-pyrazolo[3,4-b]pyridin-5-yl)thieno[2,3-b]pyrazin-6-yl)methanol], the IC50 is 3.1 nM.

As to `COCCC(O)(c1cc2ccc(-c3cnc4nn(C)cc4c3)nc2s1)C(F)(F)F` (stereo not shown) [Compound C3, 1,1,1-trifluoro-4-methoxy-2-(6-(2-methyl-2H-pyrazolo[3,4-b]pyridin-5-yl)thieno[2,3-b]pyridin-2-yl)-2-butanol], the IC50 was 807 nM.

In the case of `[2H][C@@](O)(c1cc2ccc(-c3cnc4nn(C)cc4c3)nc2s1)C1CCOCC1` (single isomer, unassigned) [Compound B66S], the IC50 is 155 nM.

Regarding `Cn1cc2cc(-c3ccc4cc(C(C)(O)C5CC5)sc4n3)cnc2n1` (stereo not shown) [Compound C11, 1-cyclopropyl-1-(6-(2-methyl-2H-pyrazolo[3,4-b]pyridin-5-yl)thieno[2,3-b]pyridin-2-yl)ethanol], the IC50 amounted to 101 nM.

On to `C[C@H](O)c1cc2c(C3CC3)cc(-c3cnc4nn(C)cc4c3)nc2s1` (single isomer, unassigned) [Compound B11S], for which the IC50 was 98.1 nM.

For `Cc1n[nH]c2ccc(-c3ccc4cc([C@@H](O)C5CCOCC5)sc4n3)cc12` (single isomer, unassigned) [Compound B40S], the IC50 was determined as 3400 nM.

For `COCC(C)(O)c1cc2ccc(-c3cnc4nn(C)cc4c3)nc2s1` (stereo not shown) [Compound C6, 1-methoxy-2-(6-(2-methyl-2H-pyrazolo[3,4-b]pyridin-5-yl)thieno[2,3-b]pyridin-2-yl)-2-propanol], the IC50 was 544 nM.

As for `CC(O)c1cc2c(-c3cnc4nn(C)cc4c3)cc(-c3cnc4nn(C)cc4c3)nc2s1` (stereo not shown) [Compound B10, 1-(4,6-bis(2-methyl-2H-pyrazolo[3,4-b]pyridin-5-yl)thieno[2,3-b]pyridin-2-yl)ethanol], the IC50 was determined as 139 nM.

For `CN1CCC(O)(c2cc3ccc(-c4cnc5nn(C)cc5c4)nc3s2)C1` (stereo not shown) [Compound C4, 1-methyl-3-(6-(2-methyl-2H-pyrazolo[3,4-b]pyridin-5-yl)thieno[2,3-b]pyridin-2-yl)-3-pyrrolidinol], the IC50 came out at 1800 nM.

With `Cc1cc2[nH]ncc2cc1-c1ccc2cc([C@H](O)C3CCOCC3)sc2n1` (single isomer, unassigned) [Compound B38R], the IC50 is 93 nM.

Take `COCCC(C)(O)c1cc2ccc(-c3cnc4nn(C)cc4c3)nc2s1` (stereo not shown) [Compound C1, 4-methoxy-2-(6-(2-methyl-2H-pyrazolo[3,4-b]pyridin-5-yl)thieno[2,3-b]pyridin-2-yl)-2-butanol]: the IC50 stood at 43.8 nM.

Regarding `Cn1cc2cc(-c3ccc4cc([C@]5(O)CCC5(C)C)sc4n3)cnc2n1` (single isomer, unassigned) [Compound C65S], the IC50 was 1990 nM.

On to `Cn1cc2cc(-c3ccc4cc(C5(O)CCCC5)sc4n3)cnc2n1` [Compound C19, 1-(6-(2-methyl-2H-pyrazolo[3,4-b]pyridin-5-yl)thieno[2,3-b]pyridin-2-yl)cyclopentanol], for which the IC50 was determined as 40.6 nM.

As for `COCC(O)(c1cc2ccc(-c3cnc4nn(C)cc4c3)nc2s1)C(F)(F)F` (stereo not shown) [Compound C16, 1,1,1-trifluoro-3-methoxy-2-(6-(2-methyl-2H-pyrazolo[3,4-b]pyridin-5-yl)thieno[2,3-b]pyridin-2-yl)-2-propanol], the IC50 worked out at 235 nM.

For the compound `CN1CCCC(C(O)c2cc3ccc(-c4cnc5nn(C)cc5c4)nc3s2)C1` (stereo not shown) [Compound B63], the IC50 turned out to be 15 nM.

Consider `O=C1NCc2cc(-c3ncc4cc([C@]5(O)C[C@@H](C(F)(F)F)C5)sc4n3)cnc21` [Compound C128C, 3-(6-(cis-1-hydroxy-3-(trifluoromethyl)cyclobutyl)thieno[2,3-d]pyrimidin-2-yl)-5,6-dihydro-7H-pyrrolo[3,4-b]pyridin-7-one], for which the IC50 was 0.62 nM.

With `CC(O)c1cc2c(-c3ccnn3C)cc(-c3ccnn3C)nc2s1` (stereo not shown) [Compound B9, 1-(4,6-bis(1-methyl-1H-pyrazol-5-yl)thieno[2,3-b]pyridin-2-yl)ethanol], the IC50 was 17700 nM.

Take `CCC(C)(O)c1cc2ccc(-c3cnc4nn(C)cc4c3)nc2s1` (stereo not shown) [Compound C10, 2-(6-(2-methyl-2H-pyrazolo[3,4-b]pyridin-5-yl)thieno[2,3-b]pyridin-2-yl)-2-butanol]: the IC50 stood at 195 nM.

As for `Cn1cc2cc(-c3ccc4cc(C5(O)CCS(=O)(=O)CC5)sc4n3)cnc2n1` [Compound C8, 4-(6-(2-methyl-2H-pyrazolo[3,4-b]pyridin-5-yl)thieno[2,3-b]pyridin-2-yl)tetrahydro-2H-thiopyran-4-ol 1,1-dioxide], the IC50 came out at 67.7 nM.

Regarding `Cn1nnc2cc(-c3ccc4cc([C@@H](O)C5CCOCC5)sc4n3)cnc21` (single isomer, unassigned) [Compound B41S], the IC50 came to 151 nM.

Regarding `Cn1nccc1-c1cc(-c2ccnn2C)c2cc(C(O)C3CCC3)sc2n1` (stereo not shown) [Compound B1, (4,6-bis(1-methyl-1H-pyrazol-5-yl)thieno[2,3-b]pyridin-2-yl)(cyclobutyl)methanol], the IC50 turned out to be 58.6 nM.

For `COCC[C@H](O)c1cc2ccc(-c3cnc4nn(C)cc4c3)cc2s1` (single isomer, unassigned) [Compound B59S], the IC50 is 1100 nM.

In the case of `O[C@]1(c2cc3cnc(-c4cnc5nncn5c4)nc3s2)C[C@H](C(F)(F)F)C1` [Compound C129C, cis-1-(2-([1,2,4]triazolo[4,3-a]pyrimidin-6-yl)thieno[2,3-d]pyrimidin-6-yl)-3-(trifluoromethyl)cyclobutanol], the IC50 was 3.5 nM.

On to `Cn1cc2cc(-c3ccc4cc(C(C)(O)C(F)(F)F)sc4n3)cnc2n1` (stereo not shown) [Compound C2, 1,1,1-trifluoro-2-(6-(2-methyl-2H-pyrazolo[3,4-b]pyridin-5-yl)thieno[2,3-b]pyridin-2-yl)-2-propanol], for which the IC50 stood at 225 nM.

Take `COCc1cc2c(C3CCC3)cc(-c3cnc4nn(C)cc4c3)nc2s1` [Compound A3, 5-(4-cyclobutyl-2-(methoxymethyl)thieno[2,3-b]pyridin-6-yl)-2-methyl-2H-pyrazolo[3,4-b]pyridine]: the IC50 worked out at 671 nM.
